From ChEMBL document CHEMBL1143917, “Improved synthesis of histone deacetylase inhibitors (HDIs) (MS-275 and CI-994) and inhibitory effects of HDIs alone or in combination with RAMBAs or retinoids on growth of human LNCaP prostate cancer cells and tumor xenografts” (Bioorg Med Chem, 2008)
Values belong to the molecule of their own block, whether it stands above or below them.

Experiments:
LNCaP [1] = assay: Cell cycle arrest in human LNCap cells assessed as accumulation at G1 phase relative to control at 5 uM; type: functional
LNCaP [2] = assay: Cell cycle arrest in human LNCap cells assessed as accumulation at S phase relative to control at 5 uM; type: functional
LNCaP [3] = assay: Cell cycle arrest in human LNCap cells assessed as accumulation at G2/M phase relative to control at 5 uM; type: functional
LNCaP [4] = assay: Antitumor activity against human LNCap cells xenografted SCID mouse model at 10 to 20 mg/kg/day, sc relative to control; type: functional; settings: route subcutaneous
LNCaP [5] = assay: Antiproliferative activity against human LNCap by MTT assay; type: functional, cell-based
LNCaP [6] = assay: Cell cycle arrest in human LNCap cells assessed as accumulation at G1 phase relative to control at 1 uM; type: functional
LNCaP [7] = assay: Cell cycle arrest in human LNCap cells assessed as accumulation at S phase relative to control at 1 uM; type: functional
LNCaP [8] = assay: Cell cycle arrest in human LNCap cells assessed as accumulation at G2/M phase relative to control at 1 uM; type: functional
LNCaP [9] = assay: Antitumor activity against human LNCap cells xenografted SCID mouse model at 20 to 10 mg/kg/day, sc relative to control; type: functional; settings: route subcutaneous

Compound: CC1=C(/C=C/C(C)=C/C=C/C(C)=C/C(=O)Nc2ccc(O)cc2)C(C)(C)CCC1n1ccnc1 (stereo not given)
- Activity (LNCaP [1]): 89.14%
- Activity (LNCaP [2]): 10.86%
- Activity (LNCaP [3]): 0%
- Activity (LNCaP [4]): 81.6%

- IC50 (LNCaP [5]): 0.36 µM
Compound: Nc1ccccc1NC(=O)c1ccc(CNC(=O)OCc2cccnc2)cc1 [ENTINOSTAT]

- IC50 (LNCaP [5]): 7.4 µM
Compound: CC(=O)Nc1ccc(C(=O)Nc2ccccc2N)cc1 [TACEDINALINE]

Compound: O=C(CCCCCCC(=O)Nc1ccccc1)NO [VORINOSTAT]
- Activity (LNCaP [6]): 81.9%
- Activity (LNCaP [7]): 18.1%
- Activity (LNCaP [8]): 0%
- Activity (LNCaP [9]): 97.1%
